Data: US6613956B1, “PI 3-kinase fusion mutants and uses thereof” (Chiron Corporation, priority 1996, dated 2003)

Tests used:
Akt = target: T1, Akt (Mus musculus, UniProt P31750); assay: In vitro protein kinase assay of immobilized Akt preincubated with phospholipid vesicles, histone H2B as substrate; assay type: biochemical; details: for increases Akt activity: summary statement for the three PI 3-kinase products; for stimulation of Akt: p110*-generated PI3,4P2 in PC vesicles, relative to unstimulated Akt
T1 construct: made in house; host or cells: COS-7 cells (transient transfection, anti-HA 12CA5 immunoprecipitation on Protein A-Sepharose)

Akt RC25 = target: T2, Akt RC25 (Homo sapiens, UniProt P31749, R25C); assay: In vitro kinase assay of PH domain point mutant Akt RC25 with PI3,4P2 vesicles; assay type: biochemical; details: vesicles generated with p110*
T2 construct: made in house; host or cells: COS-7 cells (transient transfection, anti-HA 12CA5 immunoprecipitation on Protein A-Sepharose)
Excerpt: We determined that the PH domain at the Akt N-terminus is essential for PI3,4P2 mediated stimulation. It has previously been reported that the stimulation of the kinase activity of Akt by PI 3-kinase in vivo is dependent on the PH domain at its immediate N-terminus. We determined that PI3,4P2 mediates its stimulatory effect on Akt through its PH domain by introducing a point mutation in the PH domain of Akt (Akt RC25) which abrogates PI 3-kinase-mediated Akt activation in vivo. A kinase-deficient Akt, Akt KA179, was tested as an additional control. We incubated Akt, Akt RC25 and Akt KA179 proteins with PI3,4P2 in phospholipid vesicles using p110* as described above. […] The kinase-deficient Akt KA179 had no detectable enzymatic activity.
The assay for the in vitro protein kinase activity of Akt was conducted with immobilized Akt that was preincubated with or without mixed phospholipid vesicles (20 μl) for 10 min and subjected to an in vitro protein kinase assay using histone H2B (Boehringer Mannheim) as a substrate. […] The reactions were stopped by the addition of 8 μl Lammli-sample buffer and 22 μi of each reaction mixture were analyzed by 16% SDS-PAGE. The relative amounts of incorporated radioactivity were visualized by autoradiography and quantitated using a Molecular Imager System (BioRad).

T1 sequence (P31750 whole entry): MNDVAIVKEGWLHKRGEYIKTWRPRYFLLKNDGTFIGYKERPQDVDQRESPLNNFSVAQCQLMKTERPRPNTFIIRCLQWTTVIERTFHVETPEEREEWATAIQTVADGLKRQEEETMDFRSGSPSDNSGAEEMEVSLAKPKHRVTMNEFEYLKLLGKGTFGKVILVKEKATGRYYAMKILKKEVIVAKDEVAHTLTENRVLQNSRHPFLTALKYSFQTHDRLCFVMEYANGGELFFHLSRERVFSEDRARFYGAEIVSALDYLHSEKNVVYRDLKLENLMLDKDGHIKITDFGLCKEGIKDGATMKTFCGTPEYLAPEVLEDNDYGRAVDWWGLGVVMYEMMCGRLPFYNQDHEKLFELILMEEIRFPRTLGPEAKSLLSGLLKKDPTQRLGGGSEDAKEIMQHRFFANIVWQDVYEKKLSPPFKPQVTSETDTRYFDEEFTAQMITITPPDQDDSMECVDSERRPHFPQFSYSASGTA
T2 sequence (P31749 whole entry R25C, the tested form may be a part): as the sequence (P31750 whole entry) above, with N2S, R25C, S50A, A100T, R112K, T117E, T389K, N410G, D415H counted along it

Substance	increases Akt activity (Akt)	stimulation of Akt kinase activity (Akt; vesicles containing synthetic PI3P, any conditions)	Akt activation (Akt; PE/PS vesicles)	stimulation of Akt (Akt; 4 μM) [fold]	stimulation of Akt (Akt; average) [fold]	Akt activation (Akt; presence of PS in the PI3,4P2/PC vesicles)	Akt activation (Akt; synthetic PI3,4P2 in either PE or PS vesicles)	further increase in Akt activation (Akt; synthetic dipalmitoyl derivatives of PI3,4P2, 260 nM to 1.3 μM)	increase in kinase activity of Akt (Akt; synthetic dipalmitoylated PI3,4P2 in PC vesicles)	activation of Akt by PI3,4P2 containing vesicles (Akt; wild-type Akt, vesicles generated with p110*)	activation of Akt RC25 by PI3,4P2 containing vesicles (Akt RC25)
PI 3-phosphate [PI3P]	not	No stimulation	–	–	–	–	–	–	–	–	–
phosphatidylinositol 3,4 bisphosphate [PI3,4P2]	increases Akt activity	–	did not allow activation of Akt	9	3	interfered with Akt activation	No activation	No further increase	approximately 2.5 fold	efficiently activated	not activated
